Key:
[1] = 298.15 K; 101.33 kPa; Liquid
[2] = refractive index (Na D-line) (dimensionless); settings: 298.15 K; 101.33 kPa; Liquid; Standard Abbe refractometry
[3] = xn = mol fraction of the nth substance listed; settings: 298.15 K, 101 kPa, Liquid, Vibrating tube method
[4] = refractive index (Na D-line) (dimensionless); xn = mol fraction of the nth substance listed; settings: 298.15 K, 101 kPa, Liquid, Standard Abbe refractometry

CC(=O)CC(C)=O [2,4-pentanedione]
Settings | mass density [kg/m3] | refractive index
[1] | 971 | –
[2] | – | 1.4509

CC(=O)CC(C)=O [2,4-pentanedione] + ClC(Cl)Cl
Settings | mass density, [3] [kg/m3] | refractive index, [4]
x2 = 0.0498 | 988.5 | 1.4498
x2 = 0.0996 | 1009.2 | 1.4497
x2 = 0.2007 | 1052.6 | 1.4496
x2 = 0.3002 | 1097.2 | 1.4494
x2 = 0.4002 | 1144.3 | 1.4492
x2 = 0.4999 | 1193.6 | 1.4487
x2 = 0.5997 | 1245.4 | 1.4482
x2 = 0.7007 | 1300.4 | 1.4475
x2 = 0.7997 | 1356.8 | 1.4465
x2 = 0.899 | 1415.6 | 1.445
x2 = 0.9494 | 1446.3 | 1.4442

ClC(Cl)Cl [trichloromethane]
Settings | mass density [kg/m3] | refractive index
[1] | 1478 | –
[2] | – | 1.443
